Literature values as cited in patent publication US20040049352A1, “Designing modulators for glycosyltransferases” (priority 2000, published 2004).

Biological target: T1, GlcNAc-T II (Rattus norvegicus, UniProt Q09326)
T1 sequence (Q09326 1-442): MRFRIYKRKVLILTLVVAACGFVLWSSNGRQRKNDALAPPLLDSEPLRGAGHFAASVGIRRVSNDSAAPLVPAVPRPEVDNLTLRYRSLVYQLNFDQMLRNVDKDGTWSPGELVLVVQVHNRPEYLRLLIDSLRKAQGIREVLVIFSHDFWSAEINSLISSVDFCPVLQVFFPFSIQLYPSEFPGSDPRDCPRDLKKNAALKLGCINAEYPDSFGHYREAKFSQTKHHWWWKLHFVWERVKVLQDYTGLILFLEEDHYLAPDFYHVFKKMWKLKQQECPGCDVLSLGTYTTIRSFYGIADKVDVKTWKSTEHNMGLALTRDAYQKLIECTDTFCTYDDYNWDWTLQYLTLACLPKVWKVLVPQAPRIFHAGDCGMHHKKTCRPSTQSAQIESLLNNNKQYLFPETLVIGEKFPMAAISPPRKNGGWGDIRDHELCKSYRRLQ
Conditions: inhibition studies

| Compound | binding to the enzyme GlcNAc-T II |
| --- | --- |
| CC(=O)N[C@@H]1[C@@H](O)[C@H](O)[C@@H](CO)O[C@@H]1O [GlcNAc, 2-acetamido-2-deoxy-α-D-glucopyranose] | neither GlcNAc nor GlcNAc-α-l-phosphate binds |
| CC(=O)N[C@H]1[C@@H](OP(=O)(O)O)O[C@H](CO)[C@@H](O)[C@@H]1O [GlcNAc-α-l-phosphate] | neither GlcNAc nor GlcNAc-α-l-phosphate binds |
| CC(=O)N[C@H]1[C@@H](OP(=O)(O)OP(=O)(O)OC[C@H]2O[C@@H](n3ccc(=O)[nH]c3=O)[C@H](O)[C@@H]2O)O[C@H](CO)[C@H](O)[C@@H]1O [UDP-GalNAc] | do bind |
